The values below come from patent US8945639B2, “Treatment of inflammatory bowel disease” (Provexis (IBD) Limited, priority 2003, dated 2015).

For this assay, the system named is agglutinating mucosally-associated E. coli (haemagglutination of human red blood cells). Put plainly: Haemagglutination assays with different oligosaccharides/fibres (Example 1). The assay is classed as cell-based. As to conditions: agglutinating E. coli from IBD subjects, 'in all cases', mannose, fucose, galactose 0.4M, fetuin, asialofetuin 50 μg/ml. The protocol: Blood was taken from a healthy human volunteer and placed into a heparinised container. The blood was washed three times in PBS by centrifugation at 1000 rpm for 5 minutes and by resuspending the pellet in fresh PBS. After the third wash, the pellet was resuspended in PBS so as to give a 1% red blood cell solution. Bacteria identified as E. coli, and 5 strains of CD-ileal associated E. coli were grown so as to obtain maximum fimbrial expression (see above). Bacteria were suspended in saline to give an OD equal to MacFarland standard 5. Doubling dilutions of bacterial suspension were performed in 96 well U-bottomed haemagglutination plates (Dynex technologies) to a final volume of 100 μl per well. 50 μl of 1% rbcs was added to each well. The plate was tapped gently to mix the contents of the wells and was left at room temperature for approximately 2 hrs.
Further characterisation of bacterial haemagglutination was carried out using a panel of oligosaccharides/fibers. The structures tested were: mannose (0.4M), fucose (0.4M), galactose (0.4M), fetuin (50 μg/ml), asialofetuin (50 μg/ml), bovine submaxillary mucin (BSM), hydrolysed BSM, ovine submaxilliary mucin (OSM), lactose, lactulose, siayl Tn, GalGalNAc, N-Glycolyneuraminic acid, N-acetylneuraminic acid, 3′-n-acetylneuraminyl-lactose, 6′-n-acetylneuraminyl-lactose, melibiose, plantain, stachyose, milk derived galacto-oligosaccharide, raffinose, pectin, polygalacturonic acid, and paralacto-n-hexaose.
Soluble fiber (prepared according to 1.1.12.2) and other carbohydrates were tested for their ability to modulate agglutination, attachment and invasion of cells from subjects with IBD.

On to `CC(=O)N[C@H]1C(O)O[C@H](CO)[C@H](O)[C@@H]1O[C@@H]1O[C@H](CO)[C@H](O)[C@H](O)[C@H]1O` (stereo partly shown) [Galβ1-3GalNAc], for which the inhibition of agglutination result is listed as “non-inhibitory”.

In the case of `O=C(CO)N[C@H]1[C@H]([C@H](O)[C@H](O)CO)OC(O)(C(=O)O)C[C@@H]1O` (stereo partly shown) [N-glycolyneuraminic acid], the inhibition of agglutination entry is “non-inhibitory”. The value for `OC[C@H]1O[C@@H](O[C@@H]2[C@@H](CO)OC(O)(CO)[C@H]2O)[C@H](O)[C@@H](O)[C@H]1O` (mixture of isomers) [lactulose] was “non-inhibitory”.

On to pectin, for which the inhibition of agglutination result is recorded as “non-inhibitory”. As for `C[C@H](O)[C@@H](O)[C@@H](O)[C@H](O)C=O` [fucose], the entry is “non-inhibitory”; as for `OC[C@H]1O[C@H](OCC2O[C@@H](O)[C@H](O)[C@@H](O)[C@@H]2O)[C@H](O)[C@@H](O)[C@H]1O` (stereo partly shown) [melibiose], “non-inhibitory”. Consider `CC(=O)N[C@H]1[C@H]([C@H](O)[C@H](O)CO)O[C@@](O[C@H]2[C@@H](O)[C@@H](CO)O[C@@H](O[C@H]3[C@H](O)[C@@H](O)C(O)O[C@@H]3CO)[C@@H]2O)(C(=O)O)C[C@@H]1O` (stereo partly shown) [3′-n-acetylneuraminyl-lactose], for which the inhibition of agglutination result was “non-inhibitory”. The value for `O=C[C@H](O)[C@@H](O)[C@@H](O)[C@H](O)CO` [galactose] was “non-inhibitory”; that for polygalacturonic acid was “non-inhibitory”. As for `CC(=O)NC1C(O)CC(OCC2OC(OC3C(CO)OC(O)C(O)C3O)C(O)C(O)C2O)(C(=O)O)OC1C(O)C(O)CO` (stereo not shown) [6′-n-acetylneuraminyl-lactose], the entry is “non-inhibitory”; as for `CC(=O)N[C@H]1[C@H]([C@H](O)[C@H](O)CO)OC(O)(C(=O)O)C[C@@H]1O` (stereo partly shown) [N-acetylneuraminic acid], “non-inhibitory”. The value for `OC[C@H]1O[C@@H](O[C@H]2[C@H](O)[C@@H](O)C(O)O[C@@H]2CO)[C@H](O)[C@@H](O)[C@H]1O` (stereo partly shown) [lactose] was “non-inhibitory”; that for siaylosyl-Tn was “non-inhibitory”; that for `OC[C@H]1O[C@H](OC[C@H]2O[C@H](OC[C@H]3O[C@H](O[C@]4(CO)O[C@H](CO)[C@@H](O)[C@@H]4O)[C@H](O)[C@@H](O)[C@@H]3O)[C@H](O)[C@@H](O)[C@H]2O)[C@H](O)[C@@H](O)[C@H]1O` [stachyose] was “non-inhibitory”.

With bovine submaxillary mucin, the inhibition of agglutination result is listed as “inhibited”. The value for paralacto-n-hexaose was “non-inhibitory”. As for `OC[C@H]1O[C@H](OC[C@H]2O[C@H](O[C@]3(CO)O[C@H](CO)[C@@H](O)[C@@H]3O)[C@H](O)[C@@H](O)[C@@H]2O)[C@H](O)[C@@H](O)[C@H]1O` [raffinose], the entry is “non-inhibitory”.

B1: fetuin: fetuin, glycoconjugate tested at 50 μg/ml (protein, UniProt P12763 19-359, looked up)
Alpha-2-HS-glycoprotein: IPLDPVAGYKEPACDDPDTEQAALAAVDYINKHLPRGYKHTLNQIDSVKVWPRRPTGEVYDIEIDTLETTCHVLDPTPLANCSVRQQTQHAVEGDCDIHVLKQDGQFSVLFTKCDSSPDSAEDVRKLCPDCPLLAPLNDSRVVHAVEVALATFNAESNGSYLQLVEISRAQFVPLPVSVSVEFAVAATDCIAKEVVDPTKCNLLAEKQYGFCKGSVIQKALGGEDVRVTCTLFQTQPVIPQPQPDGAEAEAPSAVPDAAGPTPSAAGPPVASVVVGPSVVAVPLPLHRAHYDLRHTFSGVASVESSSGEAFHVGKTPIVGQPSIPGGPVRLCPGRIRYFKI
For the molecule B1, the inhibition of agglutination entry is “non-inhibitory”.

B2: asialofetuin: asialofetuin, glycoconjugate tested at 50 μg/ml (protein, UniProt P12763 19-359, looked up)
Alpha-2-HS-glycoprotein: B1 Alpha-2-HS-glycoprotein
modifications: desialylated
notes: asialofetuin, glycoconjugate tested at 50 μg/ml
On to B2, for which the inhibition of agglutination entry is “non-inhibitory”.
